Values of other authors, collected in PubChem BioAssay AID1259409 (Chemical Carcinogenesis Research Information System (CCRIS), 2018).
“And” between values parts separate entries of the source, which are not always exact repeats. Equal entries are not always repeated.

System: rodent chemically induced tumor inhibition, incidence and multiplicity
Assay: CCRIS tumor inhibitor studies
Settings: Route [Inhibitor]: ORAL

For `CSCCC(N)C(=O)O` (configuration not stated), the “tumour outcome (control, treated, inhibition, significance)” value (Carcinogen: 3'-METHYL-4-DIMETHYLAMINOAZOBENZENE, 55-80-1, Dose [Inhibitor]: 0.72% IN DIET DAILY FOR 4 WK STARTING AFTER COMPLETION OF THE FIRST 4 WK OF CARCINOGEN TREATMENT (STUDY DURATION: 20 WK), Species: RAT, Target Tissue: Type of Lesion: LIVER: TUMOR, Dose [Carcinogen]: 0.064% IN DIET DAILY FOR 8 WK, 4 WK BEFORE AND ANOTHER 4 WK AFTER AGENT TREATMENT, Promoter: NONE USED) is listed as 7/15 (47%), 8/15 (53%), -13%, not calculated and 7/9 (78%), 8/12 (67%), 14%, not calculated, the “tumour outcome (control, treated, inhibition, significance)” value (Carcinogen: 4-DIMETHYLAMINOAZOBENZENE, 60-11-7, Dose [Inhibitor]: 0.5% OF DIET DAILY STARTING SIMULTANEOUSLY WITH CARCINOGEN TREATMENT AND CONTINUING THROUGH END OF STUDY (STUDY DURATION, Species: RAT, Strain/Sex: OSBORNE-MENDEL/MALE, Target Tissue: Type of Lesion: LIVER: MALIGNANT TUMOR, Dose [Carcinogen]: 0.06% OF DIET DAILY, Promoter: NONE USED) is listed as 48/80 (60%), 18/20 (90%), -50%, not calculated and the “tumour outcome (control, treated, inhibition, significance)” value (Carcinogen: 7,12-DIMETHYLBENZ[A]ANTHRACENE, 57-97-6, Dose [Inhibitor]: 0.5% DIET FOR 1 YR STARTING 5 D PRIOR TO CARCINOGEN TREATMENT (STUDY DURATION: 1 YR), Species: RAT, Strain/Sex: ALBINO/FEMALE, Target Tissue: Type of Lesion: HEMATPOIETIC SYSTEM: LEUKEMIA, Dose [Carcinogen]: 1.5 MG 1/WK FOR 3 WK, Promoter: NONE USED) is listed as 5/32 (16%), 2/34 (6%), 63%, not significant. The “tumour outcome (control, treated, inhibition, significance)” value (Carcinogen: 7,12-DIMETHYLBENZ[A]ANTHRACENE, 57-97-6, Dose [Inhibitor]: 0.5% DIET FOR 1 YR STARTING 5 D PRIOR TO CARCINOGEN TREATMENT (STUDY DURATION: 1 YR), Species: RAT, Strain/Sex: ALBINO/FEMALE, Target Tissue: Type of Lesion: MAMMARY GLAND: ADENOCARCINOMA, Dose [Carcinogen]: 1.5 MG 1/WK FOR 3 WK, Promoter: NONE USED) was 22/32 (69%), 6/34 (18%), 74%, p<0.0001, the “tumour outcome (control, treated, inhibition, significance)” value (Carcinogen: 7,12-DIMETHYLBENZ[A]ANTHRACENE, 57-97-6, Dose [Inhibitor]: 0.5% DIET FOR 1 YR STARTING 5 D PRIOR TO CARCINOGEN TREATMENT (STUDY DURATION: 1 YR), Species: RAT, Strain/Sex: ALBINO/FEMALE, Target Tissue: Type of Lesion: MAMMARY GLAND: FIBROADENOMA, Dose [Carcinogen]: 1.5 MG 1/WK FOR 3 WK, Promoter: NONE USED) was 21/32 (66%), 14/32 (41%), 38%, p 0.025 and the “tumour outcome (control, treated, inhibition, significance)” value (Carcinogen: 7,12-DIMETHYLBENZ[A]ANTHRACENE, 57-97-6, Dose [Inhibitor]: 0.5% DIET FOR 1 YR STARTING 5 D PRIOR TO CARCINOGEN TREATMENT (STUDY DURATION: 1 YR), Species: RAT, Strain/Sex: ALBINO/FEMALE, Target Tissue: Type of Lesion: ZYMBAL'S GLAND: CARCINOMA, Dose [Carcinogen]: 1.5 MG 1/WK FOR 3 WK, Promoter: NONE USED) was 5/32 (16%), 6/34 (18%), -13%, not significant. The “tumour outcome (control, treated, inhibition, significance)” value (Carcinogen: DIETHYLNITROSAMINE, 55-18-5, Dose [Inhibitor]: 0, 1.5% IN DIET BEGINNING 1 WK POST CARCINOGEN DOSE (STUDY DURATION: 52 WK), Species: MOUSE, Strain/Sex: C3H/MALE, Target Tissue: Type of Lesion: LIVER: ADENOMA, Dose [Carcinogen]: 150 MG/KG ONCE, Promoter: NONE USED) was 14%, 9%, 36%, not calculated, the “tumour outcome (control, treated, inhibition, significance)” value (Carcinogen: DIETHYLNITROSAMINE, 55-18-5, Dose [Inhibitor]: 0, 1.5% IN DIET BEGINNING 1 WK POST CARCINOGEN DOSE (STUDY DURATION: 52 WK), Species: MOUSE, Strain/Sex: C3H/MALE, Target Tissue: Type of Lesion: LIVER: ADENOMA, Dose [Carcinogen]: 150 MG/KG ONCE, Promoter: PHENOBARBITAL, 50-06-6) was 16%, 22%, -38%, not calculated and the “tumour outcome (control, treated, inhibition, significance)” value (Carcinogen: DIETHYLNITROSAMINE, 55-18-5, Dose [Inhibitor]: 0, 1.5% IN DIET BEGINNING 1 WK POST CARCINOGEN DOSE (STUDY DURATION: 52 WK), Species: MOUSE, Strain/Sex: C3H/MALE, Target Tissue: Type of Lesion: LIVER: CARCINOMA, Dose [Carcinogen]: 150 MG/KG ONCE, Promoter: NONE USED) was 71%, 77%, -8%, not calculated. For the same compound, the “tumour outcome (control, treated, inhibition, significance)” value (Carcinogen: DIETHYLNITROSAMINE, 55-18-5, Dose [Inhibitor]: 0, 1.5% IN DIET BEGINNING 1 WK POST CARCINOGEN DOSE (STUDY DURATION: 52 WK), Species: MOUSE, Strain/Sex: C3H/MALE, Target Tissue: Type of Lesion: LIVER: CARCINOMA, Dose [Carcinogen]: 150 MG/KG ONCE, Promoter: PHENOBARBITAL, 50-06-6) was 74%, 33%, 55%, p<0.01, the “tumour outcome (control, treated, inhibition, significance)” value (Carcinogen: DIETHYLNITROSAMINE, 55-18-5, Dose [Inhibitor]: 0, 1.5% IN DIET BEGINNING 1 WK POST CARCINOGEN DOSE (STUDY DURATION: 52 WK), Species: MOUSE, Strain/Sex: C3H/MALE, Target Tissue: Type of Lesion: LUNG: ADENOMA OR ADENOCARCINOMA, Dose [Carcinogen]: 150 MG/KG ONCE, Promoter: NONE USED) was 6/14 (43%), 12/22 (55%), -28%, not calculated and the “tumour outcome (control, treated, inhibition, significance)” value (Carcinogen: DIETHYLNITROSAMINE, 55-18-5, Dose [Inhibitor]: 0, 1.5% IN DIET BEGINNING 1 WK POST CARCINOGEN DOSE (STUDY DURATION: 52 WK), Species: MOUSE, Strain/Sex: C3H/MALE, Target Tissue: Type of Lesion: LUNG: ADENOMA OR ADENOCARCINOMA, Dose [Carcinogen]: 150 MG/KG ONCE, Promoter: PHENOBARBITAL, 50-06-6) was 7/19 (37%), 0/9 (0%), 100%, not calculated. The “tumour outcome (control, treated, inhibition, significance)” value (Carcinogen: ETHIONINE, 13073-35-3, Dose [Inhibitor]: 1.35 MMOL/100 G DIET DAILY FOR 4.5 MO ADMINISTERED SIMULTANEOUSLY WITH CARCINOGEN FOLLOWED BY NORMAL STOCK DIET FOR REMA, Species: RAT, Strain/Sex: WISTAR/MALE, Target Tissue: Type of Lesion: LIVER: CARCINOMA, Dose [Carcinogen]: 0.25% OF DIET DAILY FOR 8 MO, Promoter: NONE USED) was 9/9 (100%), 2/8 (25%), 75%, not calculated, the “tumour outcome (control, treated, inhibition, significance)” value (Carcinogen: ETHIONINE, 13073-35-3, Dose [Inhibitor]: 2 MMOL/100 G DIET DAILY FOR 8 MO ADMINISTERED SIMULTANEOUSLY WITH CARCINOGEN FOLLOWED BY 2 MO ON NORMAL STOCK DIET (STUD, Species: RAT, Strain/Sex: WISTAR/MALE, FEMALE, Target Tissue: Type of Lesion: LIVER: CARCINOMA, Dose [Carcinogen]: 0.25% OF DIET DAILY FOR 8 MO, Promoter: NONE USED) was 9/10 (90%), 5/10 (50%), 44%, not calculated and the “tumour outcome (control, treated, inhibition, significance)” value (Carcinogen: ETHIONINE, 13073-35-3, Dose [Inhibitor]: 4 MMOL/100 G DIET DAILY FOR 4.5 MO ADMINISTERED SIMULTANEOUSLY WITH CARCINOGEN FOLLOWED BY NORMAL STOCK DIET FOR REMAIND, Species: RAT, Strain/Sex: WISTAR/MALE, Target Tissue: Type of Lesion: LIVER: CARCINOMA, Dose [Carcinogen]: 0.25% OF DIET DAILY FOR 8 MO, Promoter: NONE USED) was 9/9 (100%), 0/10 (0%), 100%, not calculated. The “tumour outcome (control, treated, inhibition, significance)” value (Carcinogen: ETHIONINE, 13073-35-3, Dose [Inhibitor]: 4 MMOL/100 G DIET DAILY FOR 8 MO ADMINISTERED SIMULTANEOUSLY WITH CARCINOGEN FOLLOWED BY 4 MO ON BASAL DIET (STUDY DURAT, Species: RAT, Strain/Sex: WISTAR/MALE, Target Tissue: Type of Lesion: LIVER: CARCINOMA, Dose [Carcinogen]: 0.25% OF DIET DAILY FOR 12 MO, Promoter: NONE USED) was 8/8 (100%), 0/9 (0%), 100%, not calculated, the “tumour outcome (control, treated, inhibition, significance)” value (Carcinogen: ETHIONINE, 13073-35-3, Dose [Inhibitor]: 5.4 MMOL/100 G DIET DAILY FOR 4.5 MO ADMINISTERED SIMULTANEOUSLY WITH CARCINOGEN FOLLOWED BY NORMAL STOCK DIET FOR REMAI, Species: RAT, Strain/Sex: WISTAR/MALE, Target Tissue: Type of Lesion: LIVER: CARCINOMA, Dose [Carcinogen]: 0.25% OF DIET DAILY FOR 8 MO, Promoter: NONE USED) was 9/9 (100%), 0/10 (0%), 100%, not calculated and the “tumour outcome (control, treated, inhibition, significance)” value (Carcinogen: ETHIONINE, 13073-35-3, Dose [Inhibitor]: 5.4 MMOL/100 G DIET DAILY FOR 8 MO ADMINISTERED SIMULTANEOUSLY WITH CARCINOGEN FOLLOWED BY 4 MO ON BASAL DIET (STUDY DUR, Species: RAT, Strain/Sex: WISTAR/MALE, Target Tissue: Type of Lesion: LIVER: CARCINOMA, Dose [Carcinogen]: 0.25% OF DIET DAILY FOR 12 MO, Promoter: NONE USED) was 8/8 (100%), 0/9 (0%), 100%, not calculated. For the same compound, the “tumour outcome (control, treated, inhibition, significance)” value (Carcinogen: N-METHYL-N-NITROSOUREA, 684-93-5, Dose [Inhibitor]: 0.5% DIET FOR 1 YR STARTING 5 D PRIOR TO CARCINOGEN TREATMENT (STUDY DURATION: 1 YR), Species: RAT, Strain/Sex: ALBINO/FEMALE, Target Tissue: Type of Lesion: HEMATOPOIETIC SYSTEM: LEUKEMIA, Dose [Carcinogen]: 50 MG/KG 1/WK FOR 2 WK, Promoter: NONE USED) was 9/28 (32%), 5/29 (17%), 47%, not significant, the “tumour outcome (control, treated, inhibition, significance)” value (Carcinogen: N-METHYL-N-NITROSOUREA, 684-93-5, Dose [Inhibitor]: 0.5% DIET FOR 1 YR STARTING 5 D PRIOR TO CARCINOGEN TREATMENT (STUDY DURATION: 1 YR), Species: RAT, Strain/Sex: ALBINO/FEMALE, Target Tissue: Type of Lesion: KIDNEY: MESENCHYMAL TUMOR, Dose [Carcinogen]: 50 MG/KG 1/WK FOR 2 WK, Promoter: NONE USED) was 15/28 (54%), 17/29 (59%), -9%, not significant and the “tumour outcome (control, treated, inhibition, significance)” value (Carcinogen: N-METHYL-N-NITROSOUREA, 684-93-5, Dose [Inhibitor]: 0.5% DIET FOR 1 YR STARTING 5 D PRIOR TO CARCINOGEN TREATMENT (STUDY DURATION: 1 YR), Species: RAT, Strain/Sex: ALBINO/FEMALE, Target Tissue: Type of Lesion: MAMMARY GLAND: ADENOCARCINOMA, Dose [Carcinogen]: 50 MG/KG 1/WK FOR 2 WK, Promoter: NONE USED) was 9/28 (32%), 4/29 (14%), 56%, p 0.05. For the same compound, the “tumour outcome (control, treated, inhibition, significance)” value (Carcinogen: N-METHYL-N-NITROSOUREA, 684-93-5, Dose [Inhibitor]: 0.5% DIET FOR 1 YR STARTING 5 D PRIOR TO CARCINOGEN TREATMENT (STUDY DURATION: 1 YR), Species: RAT, Strain/Sex: ALBINO/FEMALE, Target Tissue: Type of Lesion: MAMMARY GLAND: FIBROADENOMA, Dose [Carcinogen]: 50 MG/KG 1/WK FOR 2 WK, Promoter: NONE USED) was 5/28 (18%), 6/29 (21%), -17%, not significant.
